Structures are written as SMILES. Some results are limits rather than exact numbers.

For the test, the system named is RS4;11 cells. Kind of test: Cell viability assay (CellTiter-Glo) in RS4;11 cells. The class given is cell-based. The following applies: Homo sapiens, 72 h; RS4;11 cells; cell viability, 3 days, CellTiter-Glo; read-out: IC50. The procedure, abridged: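 Three-day compound treatment of RS4;11 ALL cells (5000/well, 3-fold dilution series of 8 or 12 points), with IC50 from a nonlinear least-squares fit to CellTiter-Glo viability data.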
On the technique in general: Cellular ATP, detected with luciferase, serves as a proxy for viable cell number.
What is called IC50 is the concentration needed to halve the response being measured. Consider `Cc1cnc(Nc2ccc(N3CCN(CC(=O)NCCCCCC(=O)N[C@H](C(=O)N4C[C@H](O)C[C@H]4C(=O)NCc4ccc(-c5scnc5C)cc4)C(C)(C)C)CC3)cc2)nc1Nc1cccc(S(=O)(=O)NC(C)(C)C)c1` [JA-101, (2S,4R)-1-((S)-2-(6-(2-(4-(4-((4-((3-(N-(tert-Butyl)sulfamoyl)phenyl)amino)-5-methylpyrimidin-2-yl)amino)phenyl)piperazin-1-yl)acetamido)hexanamido)-3,3-dimethylbutanoyl)-4-hydroxy-N-(4-(4-methylthiazol-5-yl)benzyl)pyrrolidine-2-carboxamide], for which the half-maximal inhibitory concentration (IC50) is over 10 µM.

With `Cc1cnc(Nc2ccc(N3CCN(CC(=O)NCCCCCCC(=O)N[C@H](C(=O)N4C[C@H](O)C[C@H]4C(=O)NCc4ccc(-c5scnc5C)cc4)C(C)(C)C)CC3)cc2)nc1Nc1cccc(S(=O)(=O)NC(C)(C)C)c1` [JA-102, (2S,4R)-1-((S)-2-(7-(2-(4-(4-((4-((3-(N-(tert-Butyl)sulfamoyl)phenyl)amino)-5-methylpyrimidin-2-yl)amino)phenyl)piperazin-1-yl)acetamido)heptanamido)-3,3-dimethylbutanoyl)-4-hydroxy-N-(4-(4-methylthiazol-5-yl)benzyl)pyrrolidine-2-carboxamide], the concentration for half-maximal inhibition (IC50) was over 10 µM.

Turning to `Cc1cnc(Nc2ccc(N3CCN(CC(=O)NCCCCCCCC(=O)N[C@H](C(=O)N4C[C@H](O)C[C@H]4C(=O)NCc4ccc(-c5scnc5C)cc4)C(C)(C)C)CC3)cc2)nc1Nc1cccc(S(=O)(=O)NC(C)(C)C)c1` [JA-103, (2S,4R)-1-((S)-2-(8-(2-(4-(4-((4-((3-(N-(tert-Butyl)sulfamoyl)phenyl)amino)-5-methylpyrimidin-2-yl)amino)phenyl)piperazin-1-yl)acetamido)octanamido)-3,3-dimethylbutanoyl)-4-hydroxy-N-(4-(4-methylthiazol-5-yl)benzyl)pyrrolidine-2-carboxamide], the IC50 came to 8.96 µM.

Take `Cc1cnc(Nc2ccc(N3CCN(CC(=O)NCCCCCCCCC(=O)N[C@H](C(=O)N4C[C@H](O)C[C@H]4C(=O)NCc4ccc(-c5scnc5C)cc4)C(C)(C)C)CC3)cc2)nc1Nc1cccc(S(=O)(=O)NC(C)(C)C)c1` [JA-104, (2S,4R)-1-((S)-2-(9-(2-(4-(4-((4-((3-(N-(tert-Butyl)sulfamoyl)phenyl)amino)-5-methylpyrimidin-2-yl)amino)phenyl)piperazin-1-yl)acetamido)nonanamido)-3,3-dimethylbutanoyl)-4-hydroxy-N-(4-(4-methylthiazol-5-yl)benzyl)pyrrolidine-2-carboxamide]: the IC50 was over 10 µM.

`Cc1cnc(Nc2ccc(N3CCN(CC(=O)NCCCCCCCCCC(=O)N[C@H](C(=O)N4C[C@H](O)C[C@H]4C(=O)NCc4ccc(-c5scnc5C)cc4)C(C)(C)C)CC3)cc2)nc1Nc1cccc(S(=O)(=O)NC(C)(C)C)c1` [JA-105, (2S,4R)-1-((S)-2-(10-(2-(4-(4-((4-((3-(N-(tert-Butyl)sulfamoyl)phenyl)amino)-5-methylpyrimidin-2-yl)amino)phenyl)piperazin-1-yl)acetamido)decanamido)-3,3-dimethylbutanoyl)-4-hydroxy-N-(4-(4-methylthiazol-5-yl)benzyl)pyrrolidine-2-carboxamide]: the concentration for half-maximal inhibition (IC50) is over 10 µM.

For the molecule `Cc1cnc(Nc2ccc(N3CCN(CC(=O)NCCCCCCCCCCC(=O)N[C@H](C(=O)N4C[C@H](O)C[C@H]4C(=O)NCc4ccc(-c5scnc5C)cc4)C(C)(C)C)CC3)cc2)nc1Nc1cccc(S(=O)(=O)NC(C)(C)C)c1` [JA-106, (2S,4R)-1-((S)-2-(11-(2-(4-(4-((4-((3-(N-(tert-Butyl)sulfamoyl)phenyl)amino)-5-methylpyrimidin-2-yl)amino)phenyl)piperazin-1-yl)acetamido)undecanamido)-3,3-dimethylbutanoyl)-4-hydroxy-N-(4-(4-methylthiazol-5-yl)benzyl)pyrrolidine-2-carboxamide], the half-maximal inhibitory concentration (IC50) is over 10 µM.

Consider `Cc1cnc(Nc2ccc(N3CCN(C(=O)CCCCNc4cccc5c4C(=O)N(C4CCC(=O)NC4=O)C5=O)CC3)cc2)nc1Nc1cccc(S(=O)(=O)NC(C)(C)C)c1` (stereo not drawn) [JA-107, N-(tert-Butyl)-3-((2-((4-(4-(5-((2-(2,6-dioxopiperidin-3-yl)-1,3-dioxoisoindolin-4-yl)amino)pentanoyl)piperazin-1-yl)phenyl)amino)-5-methylpyrimidin-4-yl)amino)benzenesulfonamide], for which the half-inhibitory concentration (IC50) was found to be 2.27 µM.

On to `Cc1cnc(Nc2ccc(N3CCN(C(=O)COCCOCCOCC(=O)N[C@H](C(=O)N4C[C@H](O)C[C@H]4C(=O)NCc4ccc(-c5scnc5C)cc4)C(C)(C)C)CC3)cc2)nc1Nc1cccc(S(=O)(=O)NC(C)(C)C)c1` [JA-108, (2S,4R)-1-((S)-2-(tert-Butyl)-14-(4-(4-((4-((3-(N-(tert-butyl)sulfamoyl)phenyl)amino)-5-methylpyrimidin-2-yl)amino)phenyl)piperazin-1-yl)-4,14-dioxo-6,9,12-trioxa-3-azatetradecanoyl)-4-hydroxy-N-(4-(4-methylthiazol-5-yl)benzyl)pyrrolidine-2-carboxamide], for which the IC50 is over 10 µM.

`CS(=O)(=O)c1ccc(-c2cccc3nc(Nc4ccc(N5CCN(CC(=O)NCCCCNc6cccc7c6C(=O)N(C6CCC(=O)NC6=O)C7=O)CC5)cc4)nn23)cc1` (stereo not drawn) [JA-109, N-(4-((2-(2,6-Dioxopiperidin-3-yl)-1,3-dioxoisoindolin-4-yl)amino)butyl)-2-(4-(4-((5-(4-(methylsulfonyl)phenyl)-[1,2,4]triazolo[1,5-a]pyridin-2-yl)amino)phenyl)piperazin-1-yl)acetamide]: the half-maximal inhibitory concentration (IC50) is over 10 µM.

For `CS(=O)(=O)c1ccc(-c2cccc3nc(Nc4ccc(N5CCN(CC(=O)NCCOCCNc6cccc7c6C(=O)N(C6CCC(=O)NC6=O)C7=O)CC5)cc4)nn23)cc1` (stereo not drawn) [JA-110, N-(2-(2-((2-(2,6-Dioxopiperidin-3-yl)-1,3-dioxoisoindolin-4-yl)amino)ethoxy)ethyl)-2-(4-(4-((5-(4-(methylsulfonyl)phenyl)-[1,2,4]triazolo[1,5-a]pyridin-2-yl)amino)phenyl)piperazin-1-yl)acetamide], the concentration for half-maximal inhibition (IC50) was over 10 µM.

For the molecule `CS(=O)(=O)c1ccc(-c2cccc3nc(Nc4ccc(N5CCN(CC(=O)NCCCNc6cccc7c6C(=O)N(C6CCC(=O)NC6=O)C7=O)CC5)cc4)nn23)cc1` (stereo not drawn) [JA-111, N-(3-((2-(2,6-Dioxopiperidin-3-yl)-1,3-dioxoisoindolin-4-yl)amino)propyl)-2-(4-(4-((5-(4-(methylsulfonyl)phenyl)-[1,2,4]triazolo[1,5-a]pyridin-2-yl)amino)phenyl)piperazin-1-yl)acetamide], the half-maximal inhibitory concentration (IC50) was over 10 µM.

In the case of `CS(=O)(=O)c1ccc(-c2cccc3nc(Nc4ccc(N5CCN(CC(=O)NCCCCCCNc6cccc7c6C(=O)N(C6CCC(=O)NC6=O)C7=O)CC5)cc4)nn23)cc1` (stereo not drawn) [JA-112, N-(6-((2-(2,6-Dioxopiperidin-3-yl)-1,3-dioxoisoindolin-4-yl)amino)hexyl)-2-(4-(4-((5-(4-(methylsulfonyl)phenyl)-[1,2,4]triazolo[1,5-a]pyridin-2-yl)amino)phenyl)piperazin-1-yl)acetamide], the IC50 is over 10 µM.

Take `CS(=O)(=O)c1ccc(-c2cccc3nc(Nc4ccc(N5CCN(CC(=O)NCCCCCNc6cccc7c6C(=O)N(C6CCC(=O)NC6=O)C7=O)CC5)cc4)nn23)cc1` (stereo not drawn) [JA-113, N-(5-((2-(2,6-Dioxopiperidin-3-yl)-1,3-dioxoisoindolin-4-yl)amino)pentyl)-2-(4-(4-((5-(4-(methylsulfonyl)phenyl)-[1,2,4]triazolo[1,5-a]pyridin-2-yl)amino)phenyl)piperazin-1-yl)acetamide]: the IC50 is over 10 µM.

Consider `CS(=O)(=O)c1ccc(-c2cccc3nc(Nc4ccc(N5CCN(CC(=O)NCCOCCOCCOCCOCCNc6cccc7c6C(=O)N(C6CCC(=O)NC6=O)C7=O)CC5)cc4)nn23)cc1` (stereo not drawn) [JA-114, N-(14-((2-(2,6-Dioxopiperidin-3-yl)-1,3-dioxoisoindolin-4-yl)amino)-3,6,9,12-tetraoxatetradecyl)-2-(4-(4-((5-(4-(methylsulfonyl)phenyl)-[1,2,4]triazolo[1,5-a]pyridin-2-yl)amino)phenyl)piperazin-1-yl)acetamide], for which the IC50 was over 10 µM.

Turning to `CS(=O)(=O)c1ccc(-c2cccc3nc(Nc4ccc(N5CCN(CC(=O)NCCOCCOCCNc6cccc7c6C(=O)N(C6CCC(=O)NC6=O)C7=O)CC5)cc4)nn23)cc1` (stereo not drawn) [JA-115, N-(2-(2-(2-((2-(2,6-Dioxopiperidin-3-yl)-1,3-dioxoisoindolin-4-yl)amino)ethoxy)ethoxy)ethyl)-2-(4-(4-((5-(4-(methylsulfonyl)phenyl)-[1,2,4]triazolo[1,5-a]pyridin-2-yl)amino)phenyl)piperazin-1-yl)acetamide], the half-maximal inhibitory concentration (IC50) came to 2.14 µM.

Take `CS(=O)(=O)c1ccc(-c2cccc3nc(Nc4ccc(N5CCN(CC(=O)NCCCCCCCNc6cccc7c6C(=O)N(C6CCC(=O)NC6=O)C7=O)CC5)cc4)nn23)cc1` (stereo not drawn) [JA-116, N-(7-((2-(2,6-Dioxopiperidin-3-yl)-1,3-dioxoisoindolin-4-yl)amino)heptyl)-2-(4-(4-((5-(4-(methylsulfonyl)phenyl)-[1,2,4]triazolo[1,5-a]pyridin-2-yl)amino)phenyl)piperazin-1-yl)acetamide]: the concentration for half-maximal inhibition (IC50) was over 10 µM.

Turning to `CS(=O)(=O)c1ccc(-c2cccc3nc(Nc4ccc(N5CCN(CC(=O)NCCNc6cccc7c6C(=O)N(C6CCC(=O)NC6=O)C7=O)CC5)cc4)nn23)cc1` (stereo not drawn) [JA-117, N-(2-((2-(2,6-Dioxopiperidin-3-yl)-1,3-dioxoisoindolin-4-yl)amino)ethyl)-2-(4-(4-((5-(4-(methylsulfonyl)phenyl)-[1,2,4]triazolo[1,5-a]pyridin-2-yl)amino)phenyl)piperazin-1-yl)acetamide], the 50% inhibitory concentration (IC50) was determined as 1.44 µM.

With `CS(=O)(=O)c1ccc(-c2cccc3nc(Nc4ccc(N5CCN(CC(=O)NCCCCCCCCNc6cccc7c6C(=O)N(C6CCC(=O)NC6=O)C7=O)CC5)cc4)nn23)cc1` (stereo not drawn) [JA-118, N-(8-((2-(2,6-Dioxopiperidin-3-yl)-1,3-dioxoisoindolin-4-yl)amino)octyl)-2-(4-(4-((5-(4-(methylsulfonyl)phenyl)-[1,2,4]triazolo[1,5-a]pyridin-2-yl)amino)phenyl)piperazin-1-yl)acetamide], the IC50 is over 10 µM.

The record behind these values is patent US20230093099A1, “COMPOUNDS AND METHODS OF TREATING CANCERS” (CULLGEN (SHANGHAI), INC., priority 2019, published 2023).
